# Experimental data: ChEMBL document CHEMBL2417385, “A new strategy for the synthesis of crucigasterin A, and cytotoxic activity of this compound and its related analogues” (Bioorg Med Chem Lett, 2013)
# Tests used:
# Format in all cases: functional, cell-based
# HeLa = assay: Cytotoxicity against human HeLa cells assessed as growth inhibition after 2 days by MTT assay; conditions: 48 h
# A549 = assay: Cytotoxicity against human A549 cells after 2 days by MTT assay; conditions: A549, 48 h
# MDA-MB-231 = assay: Cytotoxicity against human MDA-MB-231 cells after 2 days by MTT assay; conditions: MDA-MB-231, 48 h
# MCF7 = assay: Cytotoxicity against human MCF7 cells after 2 days by MTT assay; conditions: MCF7, 48 h
Compound,IC50 (HeLa) [µM],IC50 (A549) [µM],IC50 (MDA-MB-231) [µM],IC50 (MCF7) [µM]
C=CCCCC/C=C/C=C/C[C@H](O)[C@H](C)N,5.91,14.7,8.03,> 50
C=CCCCCCC/C=C\C[C@H](O)[C@H](C)N,19.2,> 50,10.4,15.5
CCCCCC/C=C\CC/C=C/C[C@H](O)[C@H](C)N,39.7,7.81,12.7,13.5
COc1cccc2c1C(=O)c1c(O)c3c(c(O)c1C2=O)C[C@@](O)(C(=O)CO)C[C@@H]3O[C@H]1C[C@H](N)[C@H](O)[C@H](C)O1 [DOXORUBICIN],0.509,0.459,0.91,13.5
